These are literature values, as cited in patent US20120035207A1, “Use of GABAA Receptor Agonists for the Treatment of Hearing, Vestibular and Attention Disorders, Intention Tremor and Restless Leg Syndrome” (priority 2003, published 2012).

The data set addresses T1, a4β3δ receptor (Homo sapiens, UniProt P28472+P48169).
T1 construct: host or cells: mouse L(-tk) cells stably expressing the α4β3δ receptor (Brown et al; Adkins et al.)
To be noted: reported by Brown et al, British J. Pharmacol., 136, 965-74 (2002).

T1 sequence (P48169 36-554): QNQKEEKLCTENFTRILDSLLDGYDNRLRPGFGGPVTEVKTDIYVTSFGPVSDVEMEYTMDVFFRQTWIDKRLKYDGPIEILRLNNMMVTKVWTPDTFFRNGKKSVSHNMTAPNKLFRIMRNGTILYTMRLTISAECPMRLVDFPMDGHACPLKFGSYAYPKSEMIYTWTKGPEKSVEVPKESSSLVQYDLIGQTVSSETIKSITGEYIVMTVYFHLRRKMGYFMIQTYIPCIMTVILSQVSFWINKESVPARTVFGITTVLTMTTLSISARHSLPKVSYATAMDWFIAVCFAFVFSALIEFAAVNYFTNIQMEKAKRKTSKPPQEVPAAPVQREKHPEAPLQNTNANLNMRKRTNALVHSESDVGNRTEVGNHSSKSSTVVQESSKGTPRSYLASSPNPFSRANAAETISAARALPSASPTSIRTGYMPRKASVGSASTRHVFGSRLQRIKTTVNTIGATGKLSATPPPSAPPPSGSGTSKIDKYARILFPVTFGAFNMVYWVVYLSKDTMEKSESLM
T1 sequence (P28472 26-473): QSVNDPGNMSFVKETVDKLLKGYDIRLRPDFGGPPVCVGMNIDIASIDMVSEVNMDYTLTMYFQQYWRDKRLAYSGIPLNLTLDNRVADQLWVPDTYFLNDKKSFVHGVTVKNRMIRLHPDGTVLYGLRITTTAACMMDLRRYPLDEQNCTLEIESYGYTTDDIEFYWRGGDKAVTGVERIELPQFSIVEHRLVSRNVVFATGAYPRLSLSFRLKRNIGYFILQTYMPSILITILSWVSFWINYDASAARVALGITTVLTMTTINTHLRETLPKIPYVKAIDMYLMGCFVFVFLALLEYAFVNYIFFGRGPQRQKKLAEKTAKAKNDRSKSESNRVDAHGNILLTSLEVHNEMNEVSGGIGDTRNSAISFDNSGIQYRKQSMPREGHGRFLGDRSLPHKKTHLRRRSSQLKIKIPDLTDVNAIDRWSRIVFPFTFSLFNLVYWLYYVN
T1 sequence (O14764 17-452 partner limits assumed): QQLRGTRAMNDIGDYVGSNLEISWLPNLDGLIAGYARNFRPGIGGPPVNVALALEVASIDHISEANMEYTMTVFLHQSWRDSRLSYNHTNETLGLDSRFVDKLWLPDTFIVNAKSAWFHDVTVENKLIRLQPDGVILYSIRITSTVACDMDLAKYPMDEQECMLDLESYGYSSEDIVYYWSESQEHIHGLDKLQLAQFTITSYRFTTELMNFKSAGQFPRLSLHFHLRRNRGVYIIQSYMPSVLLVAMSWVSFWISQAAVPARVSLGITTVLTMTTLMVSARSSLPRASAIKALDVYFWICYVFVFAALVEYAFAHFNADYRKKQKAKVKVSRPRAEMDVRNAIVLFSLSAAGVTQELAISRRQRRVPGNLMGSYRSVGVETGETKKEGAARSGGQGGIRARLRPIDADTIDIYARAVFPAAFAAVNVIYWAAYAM

`Oc1noc2c1CCNC2` [Gaboxadol, 4,5,6,7-tetrahydroisoxazolo[5,4-c]pyridin-3-ol]: the “agonist activity at the a4β3δ receptor” value is on record as “potent agonist”.
